Assay results: PMC8821558, “Cryo-EM structures of human bradykinin receptor-Gq proteins complexes” (Nature Communications, 2022)
pEC50: −log10 of the molar value.

What was measured:
B2R Y201A = molecular target: T1, B2R Y201A (Homo sapiens, UniProt P30411, Y201A); assay: Calcium mobilization, CHO cells, B2R Y201A; format: cell-based
T1 construct: expressed in transfected cells; host or cells: CHO cells
Method: (§1) CHO cells transfected with wild-type or mutated B2R and wild-type or mutated Gq were seeded into 96-well black plates at a density of 30,000 cells per well and incubated for 24 h. Then cells were loaded with reagents from Calcium-5 Assay Kit (Molecular Devices) for 45 min at 37 °C in 5% CO2 according to the manufacturer’s protocol. […] Data were analyzed by GraphPad Prism 5 and presented as Mean ± S.E.M. from three independent experiments.
(§2) Supplementary Table 3. […] Emax and
(§3) pEC50 values were presented as Mean±S.E.M. from three independent experiments.
(§4) NA represented not available. Source data are provided as a Source Data file.

B2R T290A = molecular target: T2, B2R T290A (Homo sapiens, UniProt P30411, T290A); assay: Calcium mobilization, CHO cells, B2R T290A; format: cell-based
T2 construct: expressed in transfected cells; host or cells: CHO cells
Method: as §1, §2, §3, §4

B2R D311A = molecular target: T3, B2R D311A (Homo sapiens, UniProt P30411, D311A); assay: Calcium mobilization, CHO cells, B2R D311A; format: cell-based
T3 construct: expressed in transfected cells; host or cells: CHO cells
Method: as §1, §2, §3, §4

B2R I213A = molecular target: T4, B2R I213A (Homo sapiens, UniProt P30411, I213A); assay: Calcium mobilization, CHO cells, B2R I213A; format: cell-based
T4 construct: expressed in transfected cells; host or cells: CHO cells
Method: as §1, §2, §3, §4

B2R R297A = molecular target: T5, B2R R297A (Homo sapiens, UniProt P30411, R297A); assay: Calcium mobilization, CHO cells, B2R R297A; format: cell-based
T5 construct: expressed in transfected cells; host or cells: CHO cells
Method: as §1, §2, §3, §4

B2R S289A = molecular target: T6, B2R S289A (Homo sapiens, UniProt P30411, S289A); assay: Calcium mobilization, CHO cells, B2R S289A; format: cell-based
T6 construct: expressed in transfected cells; host or cells: CHO cells
Method: as §1, §2, §3, §4

B2R F286A = molecular target: T7, B2R F286A (Homo sapiens, UniProt P30411, F286A); assay: Calcium mobilization, CHO cells, B2R F286A; format: cell-based
T7 construct: expressed in transfected cells; host or cells: CHO cells
Method: as §1, §2, §3, §4

B2R F121A = molecular target: T8, B2R F121A (Homo sapiens, UniProt P30411, F121A); assay: Calcium mobilization, CHO cells, B2R F121A; format: cell-based
T8 construct: expressed in transfected cells; host or cells: CHO cells
Method: as §1, §2, §3, §4

B2R W113A = molecular target: T9, B2R W113A (Homo sapiens, UniProt P30411, W113A); assay: Calcium mobilization, CHO cells, B2R W113A; format: cell-based
T9 construct: expressed in transfected cells; host or cells: CHO cells
T9 sequence (P30411 whole entry W113A): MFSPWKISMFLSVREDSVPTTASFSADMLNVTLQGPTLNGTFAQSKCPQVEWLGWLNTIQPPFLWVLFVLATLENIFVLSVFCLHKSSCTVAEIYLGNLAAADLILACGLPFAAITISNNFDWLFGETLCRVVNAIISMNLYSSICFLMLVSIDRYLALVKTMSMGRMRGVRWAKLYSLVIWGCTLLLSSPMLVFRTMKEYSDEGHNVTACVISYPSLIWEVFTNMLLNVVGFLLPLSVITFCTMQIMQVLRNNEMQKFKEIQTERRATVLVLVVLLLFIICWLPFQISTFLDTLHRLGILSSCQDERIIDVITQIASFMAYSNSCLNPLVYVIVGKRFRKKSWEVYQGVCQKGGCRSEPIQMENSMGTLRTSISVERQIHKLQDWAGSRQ
T9 sequence (P50148 whole entry partner): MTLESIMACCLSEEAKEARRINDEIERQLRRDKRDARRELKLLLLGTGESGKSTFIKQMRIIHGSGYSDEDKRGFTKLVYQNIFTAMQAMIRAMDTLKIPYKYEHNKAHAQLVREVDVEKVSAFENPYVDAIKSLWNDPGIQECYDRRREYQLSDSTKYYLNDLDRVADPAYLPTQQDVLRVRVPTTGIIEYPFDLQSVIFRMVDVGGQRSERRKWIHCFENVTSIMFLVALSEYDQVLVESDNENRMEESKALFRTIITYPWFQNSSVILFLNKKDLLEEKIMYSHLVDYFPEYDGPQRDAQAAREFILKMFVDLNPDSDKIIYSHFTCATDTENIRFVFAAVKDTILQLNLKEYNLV
T9 sequence (P62873 2-340 partner limits assumed): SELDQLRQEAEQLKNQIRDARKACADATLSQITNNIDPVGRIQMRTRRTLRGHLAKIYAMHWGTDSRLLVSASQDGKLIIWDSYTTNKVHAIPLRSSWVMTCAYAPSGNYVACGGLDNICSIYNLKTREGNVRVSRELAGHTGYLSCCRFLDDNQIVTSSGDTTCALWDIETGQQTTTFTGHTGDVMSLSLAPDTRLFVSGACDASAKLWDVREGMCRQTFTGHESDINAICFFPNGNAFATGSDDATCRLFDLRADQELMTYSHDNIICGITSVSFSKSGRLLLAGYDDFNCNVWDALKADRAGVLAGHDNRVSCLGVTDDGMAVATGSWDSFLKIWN
T9 sequence (P59768 2-68 partner limits assumed): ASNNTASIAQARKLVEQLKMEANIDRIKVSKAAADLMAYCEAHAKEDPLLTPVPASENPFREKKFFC
Method: as §1, §2, §3, §4

[1] = molecular target: T10, wild-type human B2R with CryoEM Gq (R183Q, Q209L) (Homo sapiens, UniProt P30411); assay: Calcium mobilization, CHO cells, WT-B2R & CryoEM-Gq; format: cell-based; details: kallidin-induced calcium mobilization, Mean±S.E.M. from three independent experiments
T10 construct: expressed in transfected cells; host or cells: CHO cells
T10 sequence (P30411 1-391): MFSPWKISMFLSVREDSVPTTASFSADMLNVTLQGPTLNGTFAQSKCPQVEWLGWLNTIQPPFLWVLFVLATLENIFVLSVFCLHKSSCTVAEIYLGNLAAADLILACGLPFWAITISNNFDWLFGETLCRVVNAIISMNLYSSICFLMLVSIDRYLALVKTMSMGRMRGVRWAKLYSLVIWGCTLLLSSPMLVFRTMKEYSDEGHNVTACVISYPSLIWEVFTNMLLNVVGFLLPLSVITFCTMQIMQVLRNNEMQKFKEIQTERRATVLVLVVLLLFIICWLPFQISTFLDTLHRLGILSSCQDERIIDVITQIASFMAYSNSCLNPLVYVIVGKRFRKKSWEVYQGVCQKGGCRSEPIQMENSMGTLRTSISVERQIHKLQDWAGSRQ
Method: (§5) There was a 10xHis tag at the N-terminus of each subunit.
as §1
(§6) Supplementary Table 1 . Calcium mobilization results of WT and mutated
(§7) constructs. Emax and pEC50 values were presented as Mean±S.E.M. from three
(§8) independent experiments. Source data are provided as a Source Data file.

B2R Y322A = molecular target: T11, B2R Y322A (Homo sapiens, UniProt P30411, Y322A); assay: Calcium mobilization, CHO cells, B2R Y322A; format: cell-based
T11 construct: expressed in transfected cells; host or cells: CHO cells
Method: as §1, §2, §3, §4

B2R E204A = molecular target: T12, B2R E204A (Homo sapiens, UniProt P30411, E204A); assay: Calcium mobilization, CHO cells, B2R E204A; format: cell-based
T12 construct: expressed in transfected cells; host or cells: CHO cells
T12 sequence (P30411 whole entry E204A): as the sequence (P30411 whole entry W113A) above, with A113W, E204A counted along it
T12 sequence (P50148 whole entry partner): as the sequence (P50148 whole entry partner) above
T12 sequence (P62873 2-340 partner limits assumed): as the sequence (P62873 2-340 partner limits assumed) above
T12 sequence (P59768 2-68 partner limits assumed): as the sequence (P59768 2-68 partner limits assumed) above
Method: as §1, §2, §3, §4

B2R D293A = molecular target: T13, B2R D293A (Homo sapiens, UniProt P30411, D293A); assay: Calcium mobilization, CHO cells, B2R D293A; format: cell-based
T13 construct: expressed in transfected cells; host or cells: CHO cells
T13 sequence (P30411 whole entry D293A): as the sequence (P30411 whole entry W113A) above, with A113W, D293A counted along it
T13 sequence (P50148 whole entry partner): as the sequence (P50148 whole entry partner) above
T13 sequence (P62873 2-340 partner limits assumed): as the sequence (P62873 2-340 partner limits assumed) above
T13 sequence (P59768 2-68 partner limits assumed): as the sequence (P59768 2-68 partner limits assumed) above
Method: as §1, §2, §3, §4

B2R Q315A = molecular target: T14, B2R Q315A (Homo sapiens, UniProt P30411, Q315A); assay: Calcium mobilization, CHO cells, B2R Q315A; format: cell-based
T14 construct: expressed in transfected cells; host or cells: CHO cells
Method: as §1, §2, §3, §4

[2] = molecular target: T15, CryoEM B2R (MBP fusion) with CryoEM Gq (R183Q, Q209L) (Homo sapiens, UniProt P30411); assay: Calcium mobilization, CHO cells, CryoEM-B2R & CryoEM-Gq; format: cell-based; details: kallidin-induced calcium mobilization, Mean±S.E.M. from three independent experiments
T15 construct: HA tag (N); 10xHis tag + TEV site (N); expressed in transfected cells; host or cells: CHO cells
T15 sequence (P30411 29-391): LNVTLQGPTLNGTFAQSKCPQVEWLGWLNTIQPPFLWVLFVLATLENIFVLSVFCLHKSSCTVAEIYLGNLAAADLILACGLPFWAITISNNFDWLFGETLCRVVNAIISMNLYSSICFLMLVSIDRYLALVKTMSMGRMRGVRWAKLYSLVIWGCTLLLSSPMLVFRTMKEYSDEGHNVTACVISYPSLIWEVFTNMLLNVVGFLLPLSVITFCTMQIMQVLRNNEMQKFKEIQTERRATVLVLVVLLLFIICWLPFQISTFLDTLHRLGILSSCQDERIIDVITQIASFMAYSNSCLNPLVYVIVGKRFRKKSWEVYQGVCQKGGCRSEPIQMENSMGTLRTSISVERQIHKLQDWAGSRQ
T15 sequence (P50148 1-359 R183Q/Q209L partner): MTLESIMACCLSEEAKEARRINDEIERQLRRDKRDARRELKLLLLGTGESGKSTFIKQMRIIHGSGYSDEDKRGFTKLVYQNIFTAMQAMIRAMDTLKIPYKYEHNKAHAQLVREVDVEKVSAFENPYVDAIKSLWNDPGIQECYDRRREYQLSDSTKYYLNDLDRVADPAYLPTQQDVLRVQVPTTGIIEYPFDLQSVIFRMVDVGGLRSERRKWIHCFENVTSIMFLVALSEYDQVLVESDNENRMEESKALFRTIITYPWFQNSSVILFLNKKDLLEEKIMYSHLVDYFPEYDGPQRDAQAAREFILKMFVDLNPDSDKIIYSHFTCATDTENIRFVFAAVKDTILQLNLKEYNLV
Method: as §5, §1, §6, §7, §8

[3] = molecular target: T16, wild-type human B2R with wild-type Gq (Homo sapiens, UniProt P30411); assay: Calcium mobilization, CHO cells, WT-B2R & WT-Gq (Calcium-5 kit, Flexstation 3, ex 485/em 525 nm); format: cell-based; details: kallidin-induced calcium mobilization, Mean±S.E.M. from three independent experiments
T16 construct: expressed in transfected cells; host or cells: CHO cells
T16 sequence (P50148 whole entry partner, one chain of several): as the sequence (P50148 whole entry partner) above
T16 sequence (P62873 2-340 partner limits assumed, one chain of several): as the sequence (P62873 2-340 partner limits assumed) above
T16 sequence (P59768 2-68 partner limits assumed, one chain of several): as the sequence (P59768 2-68 partner limits assumed) above
Method: as §1
Supplementary Table 1 . Calcium mobilization results of WT and mutated constructs. Emax and pEC50 values were presented as Mean±S.E.M. from three independent experiments. Source data are provided as a Source Data file.
Supplementary Table 3. […] Emax and […]
as §3, §4

B2R = details: cited from earlier work
Text: The kallikrein-kinin system (KKS) consists of kininogens, kallikrein enzymes, kinins, type 1 and type 2 bradykinin receptors (B1R and B2R), which plays important roles in vasodilation, inflammation, vascular permeability, cardioprotection, coagulation, and pain[1]–[4]. Kinins are short-lived peptides of various lengths and they are produced by enzymatic hydrolysis of precursor kininogens. […] Both kinins ...

Compound: NCCCC[C@H](N)C(=O)N[C@@H](CCCN=C(N)N)C(=O)N1CCC[C@H]1C(=O)N1CCC[C@H]1C(=O)NCC(=O)N[C@@H](Cc1ccccc1)C(=O)N[C@@H](CO)C(=O)N1CCC[C@H]1C(=O)N[C@@H](Cc1ccccc1)C(=O)N[C@@H](CCCN=C(N)N)C(=O)O [kallidin]
- pEC50 (B2R Y201A): 7.03
- pEC50 (B2R T290A): 7.62
- pEC50 (B2R D311A): 7.78
- pEC50 (B2R I213A): 6.96
- pEC50 (B2R R297A): 8.79
- pEC50 (B2R S289A): 8.86
- pEC50 (B2R F286A): 6.95
- pEC50 (B2R F121A): 6.11
- pEC50 (B2R W113A): 5.98
- pEC50 [1]: 8.62
- pEC50 (B2R Y322A): 7.67
- pEC50 (B2R E204A): 7.89
- pEC50 (B2R D293A): 8.27
- pEC50 (B2R Q315A): 7.18
- pEC50 [2]: 8.18
- pEC50 [3]: 9.12

Compound: D-Arg-Arg-Pro-Hyp-Gly-Thi-Ser-D-Tic-Oic-Arg [icatibant]
- antagonist class at B2R (B2R): B2R selective antagonist
